Source: ChEMBL document CHEMBL1201862, “PubChem BioAssay data set” (2004)
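Protocol summary: plate cells (96-well), add compound at 5 concentrations, incubate 48 h, interpolate endpoints linearly. GI50 is the concentration that inhibits growth by half.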 The source made the active and inactive calls. Rule as the data show it: active = GI50 up to about 1.1 µM and inactive = higher.

What was measured:
Assay in all cases: DTP human tumour cell line panel, 48 h
[1] = tested on: HOP-62
[2] = tested on: SW-620
[3] = tested on: T47D
[4] = tested on: LOX IMVI
[5] = tested on: CCRF-CEM
[6] = tested on: IGROV-1
[7] = tested on: MDA-MB-435
[8] = tested on: MCF7
[9] = tested on: K562
[10] = tested on: DU-145
[11] = tested on: A549
[12] = tested on: SK-MEL-5
[13] = tested on: 786-0
[14] = tested on: COLO 205
[15] = tested on: M14
[16] = tested on: OVCAR-3
[17] = tested on: Hs-578T
[18] = tested on: UACC-62
[19] = tested on: ACHN
[20] = tested on: NCI/ADR-RES
[21] = tested on: NCI-H522
[22] = tested on: HCC 2998
[23] = tested on: UO-31
[24] = tested on: BT-549
[25] = tested on: MDA-N
[26] = tested on: HCT-116
[27] = tested on: HCT-15
[28] = tested on: SF-268
[29] = tested on: OVCAR-8
[30] = tested on: MOLT-4
[31] = tested on: SN12C
[32] = tested on: SF-539
[33] = tested on: RXF 393
[34] = tested on: OVCAR-5
[35] = tested on: NCI-H460
[36] = tested on: CAKI-1
[37] = tested on: EKVX
[38] = tested on: HT-29
[39] = tested on: HL-60
[40] = tested on: UACC-257
[41] = tested on: NCI-H226
[42] = tested on: PC-3
[43] = tested on: SNB-19
[44] = tested on: MDA-MB-231
[45] = tested on: SF-295
[46] = tested on: TK-10
[47] = tested on: NCI-H23
[48] = tested on: KM12
[49] = tested on: OVCAR-4
[50] = tested on: A498
[51] = tested on: SK-MEL-2
[52] = tested on: HOP-92
[53] = tested on: SK-MEL-28
[54] = tested on: U-251
[55] = tested on: SK-OV-3

## Cc1cc(C)n(C2=NS(=O)(=O)c3ccccc3N2C)n1
[1]
  GI50: > 100 µM (inactive)
[2]
  GI50: > 100 µM (inactive)
[3]
  GI50: > 100 µM (inactive)
[4]
  GI50: > 100 µM (inactive)
[5]
  GI50: > 100 µM (inactive)
[6]
  GI50: > 100 µM (inactive)
[7]
  GI50: > 100 µM (inactive)
[8]
  GI50: > 100 µM (inactive)
[9]
  GI50: > 100 µM (inactive)
[10]
  GI50: > 100 µM (inactive)
[11]
  GI50: > 100 µM (inactive)
[12]
  GI50: > 100 µM (inactive)
[13]
  GI50: > 100 µM (inactive)
[14]
  GI50: > 100 µM (inactive)
[15]
  GI50: > 100 µM (inactive)
[16]
  GI50: > 100 µM (inactive)
[17]
  GI50: > 100 µM (inactive)
[18]
  GI50: > 100 µM (inactive)
[19]
  GI50: > 100 µM (inactive)
[20]
  GI50: > 100 µM (inactive)
[21]
  GI50: > 100 µM (inactive)
[22]
  GI50: > 100 µM (inactive)
[23]
  GI50: > 100 µM (inactive)
[24]
  GI50: > 100 µM (inactive)
[25]
  GI50: > 100 µM (inactive)
[26]
  GI50: > 100 µM (inactive)
[27]
  GI50: > 100 µM
[28]
  GI50: > 100 µM (inactive)
[29]
  GI50: > 100 µM (inactive)
[30]
  GI50: > 100 µM (inactive)
[31]
  GI50: > 100 µM (inactive)
[32]
  GI50: > 100 µM (inactive)
[33]
  GI50: > 100 µM (inactive)
[34]
  GI50: > 100 µM (inactive)
[35]
  GI50: > 100 µM (inactive)
[36]
  GI50: > 100 µM (inactive)
[37]
  GI50: > 100 µM (inactive)
[38]
  GI50: > 100 µM (inactive)
[39]
  GI50: > 100 µM (inactive)
[40]
  GI50: > 100 µM (inactive)
[41]
  GI50: > 100 µM (inactive)
[42]
  GI50: > 100 µM (inactive)
[43]
  GI50: > 100 µM (inactive)
[44]
  GI50: > 100 µM (inactive)
[45]
  GI50: > 100 µM (inactive)
[46]
  GI50: > 100 µM (inactive)
[47]
  GI50: > 100 µM (inactive)
[48]
  GI50: > 100 µM (inactive)
[49]
  GI50: > 100 µM (inactive)
[50]
  GI50: > 100 µM (inactive)
[51]
  GI50: > 100 µM (inactive)
[52]
  GI50: > 100 µM (inactive)
[53]
  GI50: > 100 µM (inactive)
[54]
  GI50: > 100 µM (inactive)
[55]
  GI50: > 100 µM (inactive)
